Results from patent US4382939A, “3-[2-(Mono-and dialkylamino)propyl]-1,2,3,4-tetrahydro-5H-[1]benzopyrano[3,4-C]pyridin- 5-ones useful for treating bronchospastic diseases” (Warner Lambert Company, priority 1982, dated 1983).
Counter-ions that a name gives are not always drawn.

Legend:
[1] = system: collapse on exposure to an aerosol of methacholine; experiment: Anticholinergic test: prolongation of collapse time in conscious guinea pigs exposed to an aerosol of methacholine; type: in vivo; settings: guinea pig, 25 mg/kg intraperitoneally; 10 minutes methacholine aerosol; Control 1.9 to 2.0
Method: The compounds of the invention display anticholinergic properties when tested by the following procedure: Conscious guinea pigs, six at a time, are put into a sealed chamber and exposed for 10 minutes to an aerosol of methacholine. Untreated animals or those treated with vehicle will collapse in 1.9±0.1 minutes. Groups of animals are injected intraperitoneally with 25 mg/kg of test compound and exposed in the chamber under the same conditions. Compounds which prolong the collapse time past that of the control animals are considered active.

[2] = system: salivation (pilocarpine nitrate); experiment: Inhibition of pilocarpine-induced salivation in anesthetized dogs; type: in vivo, mongrel dogs; settings: Canis lupus familiaris, iv, cumulative i.v. doses, pilocarpine-induced salivary flow, read-out: ID50 Salivation
Method: (§1) In an additional testing procedure, mongrel dogs of either sex, 10.6 to 15.3 kg, are anesthetized with sodium pentobarbital, 30 mg/kg i.v. and then prepared for the monitoring of pulmonary mechanics. A Buxco pulmonary mechanics computer is used to calculate pulmonary resistance, dynamic compliance, and tidal volume from transpulmonary pressure and flow data. Respiratory rate, heart rate and mean arterial blood pressure are also monitored. The femoral vein is cannulated for the delivery of drugs. Pilocarpine nitrate (0.2 mg/kg/hr) is than infused to induce a bronchospasm and salivary flow. […] Salivary output is collected from a catheterized Wharton's duct at five minute intervals. After salivation has stabilized, 3 control collections are taken at 5 minute intervals followed by a series of cumulative i.v. doses of test compound (1, 3, 10, 30, 100, 300, 1000, 3000, and 10,000 μg/kg) that are injected every 5 minutes for 45 minutes. The percent inhibition of both the bronchospasm and salivation are calculated for each dose with a return to pre-pilocarpine resistance levels or cessation of salivation equal to a 100% inhibition.

[3] = system: bronchospasm (pilocarpine nitrate); experiment: Inhibition of pilocarpine-induced bronchospasm in anesthetized dogs (pulmonary mechanics); type: in vivo, mongrel dogs
Method: as §1

CNC(C)CN1CCc2c(c(=O)oc3cc(C)c(NC(C)=O)cc23)C1 (stereo not shown) [AcNH Me H Me H, N-[1,3,4,5-Tetrahydro-8-methyl-3-[2-(methylamino)propyl]-5-oxo-2H-[1]benzopyrano[3,4-c]pyridin-9-yl]acetamide]
(Minutes Protection) [1]: 10.0 min

CCN(CC)C(C)CN1CCc2c(c(=O)oc3cc(C)c(Cl)cc23)C1 (stereo not shown) [Cl Me H Et Et, 9-Chloro-3-[2-(diethylamino)propyl]-1,2,3,4-tetrahydro-8-methyl-5H-[1]benzopyrano[3,4-c]pyridin-5-one]
(Minutes Protection) [1]: 3.4 min

CCNC(C)CN1CCc2c(c(=O)oc3cc(C)c(Cl)cc23)C1 (stereo not shown) [Cl Me H Et H, 9-Chloro-3-[2-(ethylamino)propyl]-1,2,3,4-tetrahydro-8-methyl-5H-[1]benzopyrano[3,4-c]pyridin-5-one]
(Minutes Protection) [1]: 3.1 min

CCOc1cc2oc(=O)c3c(c2cc1OCC)CCN(CC(C)N(CC)CC)C3.Cl.Cl (stereo not shown) [EtO EtO H Et Et, 3-[2-(Diethylamino)propyl]-1,2,3,4-tetrahydro-8,9-diethoxy-5H-[1]benzopyrano[3,4-c]pyridin-5-one dihydrochloride]
(Minutes Protection) [1]: 10.0 min

CCOc1cc2oc(=O)c3c(c2cc1OCC)CCN(CC(C)N(C)C)C3.Cl.Cl (stereo not shown) [EtO EtO H Me Me, 3-[2-(Dimethylamino)propyl]-1,2,3,4-tetrahydro-8,9-diethoxy-5H-[1]benzopyrano[3,4-c]pyridin-5-one dihydrochloride]
ED50 [2]: 0.303 mg/kg
(Minutes Protection) [1]: 7.3 min
ED50 ([3]; Canis lupus familiaris, iv, anesthetized dogs, cumulative i.v. doses, pilocarpine-induced bronchospasm, read-out: ID50 Bronchospasm): 0.147 mg/kg
Pulmonary Selectivity* ([3]; dogs, i.v., >1 indicates more potent as a bronchodilator than as an antisecretory agent): 2.1

CC(CN1CCc2c(c(=O)oc3c2ccc2ccccc23)C1)N(C)C (stereo not shown) [H CHCHCHCH Me Me, 2-[2-(Dimethylamino)propyl]-1,2,3,4-tetrahydro-12H-naphtho-[2',1':5,6]pyrano[3,4-c]pyridin-12-one dihydrochlorine]
(Minutes Protection) [1]: 5.9 min

CCCN(CC)C(C)CN1CCc2c(c(=O)oc3ccccc23)C1 (stereo not shown) [H H H Et Pr, 3-[2-(Ethylpropylamino)propyl]-1,2,3,4-tetrahydro-5H-[1]benzopyrano[3,4-c]pyridin-5-one]
(Minutes Protection) [1]: 6.4 min

CCNC(C)CN1CCc2c(c(=O)oc3cc(C)ccc23)C1 (stereo not shown) [H Me H Et H, 3-[2-(Ethylamine)propyl]-1,2,3,4-tetrahydro-8-methyl-5H-[1]benzopyrano[3,4-c]pyridin-5-one]
(Minutes Protection) [1]: 10.0 min

CCCN(CC)C(C)CN1CCc2c(c(=O)oc3cc(C)ccc23)C1 (stereo not shown) [H Me H Et n-Pr, 3-[2-(Ethylpropylamino)propyl]-1,2,3,4-tetrahydro-8-methyl-5H-[1]benzopyrano[3,4-c]pyridin-5-one]
(Minutes Protection) [1]: 7.6 min

CNC(C)CN1CCc2c(c(=O)oc3cc(C)ccc23)C1 (stereo not shown) [H Me H Me H, 1,2,3,4-Tetrahydro-8-methyl-3-[2-(methylamine)propyl]-5H-[1]-benzopyrano[3,4-c]pyridin-5-one]
(Minutes Protection) [1]: 2.1 min

CCCCN(C)C(C)CN1CCc2c(c(=O)oc3cc(C)ccc23)C1 (stereo not shown) [H Me H Me n-Bu, 3-[2-(Butylmethylamino)propyl]-1,2,3,4-tetrahydro-8-methyl-5H-[1]benzopyrano[3,4-c]pyridin-5-one]
(Minutes Protection) [1]: 7.8 min

CCCN(C)C(C)CN1CCc2c(c(=O)oc3cc(C)ccc23)C1 (stereo not shown) [H Me H Me n-Pr, 1,2,3,4-Tetrahydro-8-methyl-3-[2-(methylpropylamino)propyl]-5H-[1]benzopyrano[3,4-c]pyridin-5-one]
(Minutes Protection) [1]: 5.4 min

CCN(CC)C(C)CN1CCc2c(c(=O)oc3cc(OC)ccc23)C1 (stereo not shown) [H MeO H Et Et, 3-[2-(Diethylamino)propyl]-1,2,3,4-tetrahydro-8-methoxy-5H-[1]benzopyrano[3,4-c]pyridin-5-one]
(Minutes Protection) [1]: 10.0 min

CCNC(C)CN1CCc2c(c(=O)oc3cc(OC)ccc23)C1 (stereo not shown) [H MeO H Et H, 3-[2-(Ethylamino)propyl]-1,2,3,4-tetrahydro-8-methoxy-5H-[1]benzopyrano[3,4-c]pyridin-5-one]
(Minutes Protection) [1]: 7.5 min

CCCN(CC)C(C)CN1CCc2c(c(=O)oc3cc(OC)ccc23)C1 (stereo not shown) [H MeO H Et n-Pr, 3-[2-(Ethylpropylamino)propyl]-1,2,3,4-tetrahydro-8-methoxy-5H-[1]benzopyrano[3,4-c]pyridin-5-one]
(Minutes Protection) [1]: 10.0 min

CCN(C)C(C)CN1CCc2c(c(=O)oc3cc(OC)ccc23)C1 (stereo not shown) [H MeO H Me Et, 3-[2-(Ethylmethylamino)propyl]-1,2,3,4-tetrahydro-8-methoxy-5H-[1]benzopyrano[3,4-c]pyridin-5-one]
(Minutes Protection) [1]: 9.1 min

CNC(C)CN1CCc2c(c(=O)oc3cc(OC)ccc23)C1 (stereo not shown) [H MeO H Me H, 1,2,3,4-Tetrahydro-8-methoxy-3-[2-(methylamino)propyl]-5H-[1]benzopyrano[3,4-c]pyridin-5-one]
(Minutes Protection) [1]: 8.6 min

COc1ccc2c3c(c(=O)oc2c1)CN(CC(C)N(C)C)CC3.Cl.Cl (stereo not shown) [H MeO H Me Me, 3-[2-(Dimethylamino)propyl]-1,2,3,4-tetrahydro-8-methoxy-5H-[1]benzopyrano[3,4-c]pyridin-5-one dihydrochloride]
(Minutes Protection) [1]: 10.0 min

CCCCN(C)C(C)CN1CCc2c(c(=O)oc3cc(OC)ccc23)C1 (stereo not shown) [H MeO H Me n-Bu]
(Minutes Protection) [1]: 8.6 min

CCCN(C)C(C)CN1CCc2c(c(=O)oc3cc(OC)ccc23)C1 (stereo not shown) [H MeO H Me n-Pr, 1,2,3,4-Tetrahydro-8-methoxy-3[2-(methylpropylamino)propyl]-5H-[1]benzopyrano[3,4-c]pyridin-5-one]
(Minutes Protection) [1]: 10.0 min

CCN(CC)C(C)CN1CCc2c(c(=O)oc3c(OC)c(OC)ccc23)C1 (stereo not shown) [H MeO MeO Et Et, 3-[2-(Diethylamino)propyl]-1,2,3,4-tetrahydro-7,8-dimethoxy-5H-[1]benzopyrano[3,4-c]pyridin-5-one]
(Minutes Protection) [1]: 7.6 min

CCNC(C)CN1CCc2c(c(=O)oc3c(OC)c(OC)ccc23)C1 (stereo not shown) [H MeO MeO Et H, 3-[2-(Ethylamino)propyl]-1,2,3,4-tetrahydro-7,8-dimethoxy-5H-[1] benzopyrano[3,4-c]pyridin-5-one]
(Minutes Protection) [1]: 9.1 min

CCN(C)C(C)CN1CCc2c(c(=O)oc3c(OC)c(OC)ccc23)C1.Cl.Cl (stereo not shown) [H MeO MeO Me Et, 3-[2-(Ethylmethylamino)propyl]-1,2,3,4-tetrahydro-7,8-dimethoxy-5H-[1]benzopyrano[3,4-c]pyridin-5-one dihydrochloride]
(Minutes Protection) [1]: 5.0 min

COc1ccc2c3c(c(=O)oc2c1OC)CN(CC(C)N(C)C)CC3.Cl.Cl (stereo not shown) [H MeO MeO Me Me, 3-[2-(Dimethylamino)propyl]-1,2,3,4-tetrahydro-7,8-dimethoxy-5H-[1]benzopyrano[3,4-c]pyridin-5-one dihydrochloride]
(Minutes Protection) [1]: 5.5 min

Cc1cc2oc(=O)c3c(c2cc1C)CCN(CC(C)N(C)C)C3 (stereo not shown) [Me Me H Me Me, 3-[2-(Dimethylamino)propyl]-1,2,3,4-tetrahydro-8,9-dimethyl-5H-[1]benzopyrano[3,4-c]pyridin-5-one]
(Minutes Protection) [1]: 4.8 min

CCCCN(CC)C(C)CN1CCc2c(c(=O)oc3cc(OC)c(OC)cc23)C1 (stereo not shown) [MeO MeO H Et Bu, 3-[2-(Butylethylamino)propyl]-1,2,3,4-tetrahydro-8,9-dimethoxy-5H-[1]benzopyrano[3,4-c]pyridin-5-one]
(Minutes Protection) [1]: 3.7 min

CCCN(CC)C(C)CN1CCc2c(c(=O)oc3cc(OC)c(OC)cc23)C1 (stereo not shown) [MeO MeO H Et n-Pr, 3-[2-(Ethylpropylamino)propyl]-1,2,3,4-tetrahydro-8,9-dimethoxy-5H-[1]benzopyrano[3,4-c]pyridin-5-one]
(Minutes Protection) [1]: 3.7 min

CCN(CC(C)C)C(C)CN1CCc2c(c(=O)oc3cc(OC)c(OC)cc23)C1 (stereo not shown) [MeO MeO H Et s-Bu, 3-[2-[Ethyl(2-methylpropyl)amino]propyl]-1,2,3,4-tetrahydro-8,9-dimethoxy-5H-[1]benzopyrano[3,4-c]pyridin-5-one]
(Minutes Protection) [1]: 5.4 min

CCN(C)C(C)CN1CCc2c(c(=O)oc3cc(OC)c(OC)cc23)C1.Cl.Cl (stereo not shown) [MeO MeO H Me Et, 3-[2-(Ethylmethylamino)propyl]-1,2,3,4-tetrahydro-8,9-dimethoxy-5H-[1]benzopyrano[3,4-c]pyridin-5-one dihydrochloride]
(Minutes Protection) [1]: 6.0 min

CCCN(C)C(C)CN1CCc2c(c(=O)oc3cc(OC)c(OC)cc23)C1 (stereo not shown) [MeO MeO H Me n-Pr, 1,2,3,4-Tetrahydro-8,9-dimethoxy-3-[2-(methylpropylamino)propyl]-5H-[1]benzopyrano[3,4-c]pyridin-5-one]
(Minutes Protection) [1]: 2.5 min

CC(CN1CCc2c(c(=O)oc3cc4c(cc23)OCO4)C1)N(C)C (stereo not shown) [OCH2O H Me Me, 3-[2-(Dimethylamino)propyl]-1,2,3,4-tetrahydro-5H-[1,3]benzodioxolo]5',6':5,6]pyrano[3,4-c]pyridin-5-one dihydrochloride]
(Minutes Protection) [1]: 2.3 min
